In patent publication US20250059164A1, “IRAK DEGRADERS AND USES THEREOF” (Kymera Therapeutics, Inc., priority 2023, published 2025):

Biological target: T1, IRAK4 (Homo sapiens, UniProt Q9NWZ3)
T1 construct: endogenous in cells; host or cells: OCI-LY10
T1 sequence (Q9NWZ3 1-460): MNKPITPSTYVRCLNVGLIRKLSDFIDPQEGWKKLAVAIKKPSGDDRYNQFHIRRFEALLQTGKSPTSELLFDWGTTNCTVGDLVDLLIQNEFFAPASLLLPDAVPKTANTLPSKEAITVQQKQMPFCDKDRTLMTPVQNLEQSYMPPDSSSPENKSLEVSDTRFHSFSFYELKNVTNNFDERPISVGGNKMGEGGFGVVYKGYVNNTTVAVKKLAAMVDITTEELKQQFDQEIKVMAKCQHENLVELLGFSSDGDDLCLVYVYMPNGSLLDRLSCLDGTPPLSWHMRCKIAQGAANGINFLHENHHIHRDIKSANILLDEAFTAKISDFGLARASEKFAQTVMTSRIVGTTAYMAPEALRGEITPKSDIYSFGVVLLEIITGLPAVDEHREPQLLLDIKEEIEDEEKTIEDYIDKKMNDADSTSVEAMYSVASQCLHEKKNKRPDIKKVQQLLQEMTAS
Test: IRAK4 MSD degradation in OCI-LY10
Format: cell-based
Conditions: OCI-LY10 cells, 24 hrs, Meso Scale Discovery
How it was run: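 OCI-LY10 cells treated 4 to 24 hours at 37° C. with 8-dose 1:3 series, top 1 to 10 μM. IRAK4 in lysates quantified by MSD sandwich immunoassay (mouse capture, rabbit detection, SULFO-TAG anti-rabbit). DC50 from three-parameter logistic fit.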

| DC50 [nM] | Structure (SMILES) |
| --- | --- |
| < 10 | CN(C[C@H]1CC[C@H](n2cc3cc(NC(=O)c4cccc(C(F)(F)F)n4)c(C#N)cc3n2)CC1)[C@@H]1CCN(c2cccc3c2n(C)c(=O)n3C2CCC(=O)NC2=O)C[C@@H]1F (stereo partly shown) [I-10] |
| < 10 | CN(C[C@H]1CC[C@H](n2cc3cc(NC(=O)c4cccc(C(F)(F)F)n4)ccc3n2)CC1)[C@H]1CCN(c2cccc3c2n(C)c(=O)n3C2CCC(=O)NC2=O)C[C@H]1F (stereo partly shown) [I-31] |
| < 10 | CN(C[C@H]1CC[C@H](n2cc3cc(NC(=O)c4cccc(C(F)(F)F)n4)ccc3n2)CC1)C1CCN(c2cccc3c2n(C)c(=O)n3C2CCC(=O)NC2=O)C[C@@H]1F (stereo partly shown) [I-32] |
| 10 to 100 | CN(C[C@H]1CC[C@H](n2cc3cc(NC(=O)c4cccc(C(F)(F)F)n4)ccc3n2)CC1)[C@H]1CCN(c2cccc3c2n(C)c(=O)n3C2CCC(=O)NC2=O)C[C@@H]1F (stereo partly shown) [I-33] |
| < 10 | CN(C[C@H]1CC[C@H](n2cc3cc(NC(=O)c4cccc(C(F)(F)F)n4)ncc3n2)CC1)[C@H]1CCN(c2cccc3c2n(C)c(=O)n3C2CCC(=O)NC2=O)C[C@H]1F (stereo partly shown) [I-34] |
| < 10 | CN(C[C@H]1CC[C@H](n2cc3cc(NC(=O)c4cccc(C(F)(F)F)n4)ncc3n2)CC1)[C@@H]1CCN(c2cccc3c2n(C)c(=O)n3C2CCC(=O)NC2=O)C[C@@H]1F (stereo partly shown) [I-35] |

Further lines, the compound ahead of its results:

| Structure (SMILES) | DC50 [nM] |
| --- | --- |
| CN(C[C@H]1CC[C@H](n2cc3cc(NC(=O)c4cccc(C(F)(F)F)n4)c(C#N)cc3n2)CC1)[C@H]1CCN(c2cccc3c2n(C)c(=O)n3C2CCC(=O)NC2=O)C[C@H]1F (stereo partly shown) [I-8] | < 10 |
| CN(C[C@H]1CC[C@H](n2cc3cc(NC(=O)c4cccc(C(F)(F)F)n4)c(C#N)cc3n2)CC1)[C@H]1CCN(c2cccc3c2n(C)c(=O)n3C2CCC(=O)NC2=O)C[C@@H]1F (stereo partly shown) [I-9] | < 10 |
| O=C1CCC(Nc2cccc(N3CC(CN4CCN(C[C@H]5CC[C@H](n6cc(NC(=O)c7cnn8ccc(N9C[C@H]%10C[C@@H]9CO%10)nc78)c(C(F)F)n6)CC5)CC4)C3)c2)C(=O)N1 (stereo partly shown) [I-13] | 10 to 100 |
| O=C1CCC(c2ccc(N3CC(N4CCN([C@H]5CC[C@H](n6cc(NC(=O)c7cnn8ccc(N9CCCC9)nc78)c(C(F)F)n6)CC5)CC4)C3)cc2Cl)C(=O)N1 (stereo partly shown) [I-14] | < 10 |
| O=C1CCC(Nc2cccc(N3CCN(C[C@H]4CC[C@H](n5cc6cc(NC(=O)c7cccc(C(F)(F)F)n7)ncc6n5)CC4)CC3)c2)C(=O)N1 (stereo partly shown) [I-15] | > 200 |
| O=C1CCC(Nc2ccc(N3CC(CN4CCN(C[C@H]5CC[C@H](n6cc(NC(=O)c7cnn8ccc(N9C[C@H]%10C[C@@H]9CO%10)nc78)c(C(F)F)n6)CC5)CC4)C3)cc2Cl)C(=O)N1 (stereo partly shown) [I-16] | 10 to 100 |
| Cc1nn(C2CCC(=O)NC2=O)c2cccc(N3CC(O)(CN4CCN(C[C@H]5CC[C@H](n6cc(NC(=O)c7cnn8ccc(N9C[C@H]%10C[C@@H]9CO%10)nc78)c(C(F)F)n6)CC5)CC4)C3)c12 (stereo partly shown) [I-19] | < 10 |
| CN(C[C@H]1CC[C@H](n2cc(NC(=O)c3cnn4ccc(N5CCCC5)nc34)c(C(F)F)n2)CC1)[C@H]1CCN(c2cccc3c2n(C)c(=O)n3C2CCC(=O)NC2=O)C[C@@H]1F (stereo partly shown) [I-22] | < 10 |
| CN(C[C@H]1CC[C@H](n2cc(NC(=O)c3cnn4ccc(N5CCCC5)nc34)c(C(F)F)c2)CC1)[C@@H]1CCN(c2cccc3c2n(C)c(=O)n3C2CCC(=O)NC2=O)C[C@@H]1F (stereo partly shown) [I-23] | < 10 |
| C[C@H]1CN(c2ccn3ncc(C(=O)Nc4cn([C@H]5CC[C@H](CN(C)[C@H]6CCN(c7cccc8c7n(C)c(=O)n8C7CCC(=O)NC7=O)C[C@H]6F)CC5)nc4C(F)F)c3n2)CCO1 (stereo partly shown) [I-24] | < 10 |
| C[C@H]1CN(c2ccn3ncc(C(=O)Nc4cn([C@H]5CC[C@H](CN(C)[C@H]6CCN(c7cccc8c7n(C)c(=O)n8C7CCC(=O)NC7=O)C[C@@H]6F)CC5)nc4C(F)F)c3n2)CCO1 (stereo partly shown) [I-25] | < 10 |
| C[C@H]1CN(c2ccn3ncc(C(=O)Nc4cn([C@H]5CC[C@H](CN(C)C6CCN(c7cccc8c7n(C)c(=O)n8C7CCC(=O)NC7=O)C[C@@H]6F)CC5)nc4C(F)F)c3n2)CCO1 (stereo partly shown) [I-26] | < 10 |
| CC(C)Oc1cc2nc([C@H]3CC[C@H](CN4CCC(c5ccc6c(c5)n(C)c(=O)n6C5CCC(=O)NC5=O)CC4)CC3)cn2cc1C(=O)Nc1cccn([C@H]2C[C@H]2F)c1=O (stereo partly shown) [I-37] | < 10 |
